Source: patent US20130178479A1, “PHARMACEUTICAL COMBINATIONS” (NOVARTIS AG, priority 2010, published 2013)
Like-named read-outs stand apart in the source and are kept apart here. Each block holds one compound with its values, some of them ahead of it.

Key:
[1] = tested on: GA-10 human Non-Hodgkin's Lymphoma cancer cells; test: Cell proliferation assay (CellTiter-Glo) in GA-10; format: cell-based
Procedure: (§1) Celt Proliferation Assay: Cell viability was determined by measuring cellular ATP content using the CellTiter-Glo® Luminescent Cell Viability Assay (Promega #G7573) according to manufacturer's protocol. Briefly, 1500-50000 cells were plated on either 384 or 96 well plates in 30 μl (384 well) or 100 μl (96 well) growth media, cells were: allowed to attach overnight and followed by 72 hrs of incubation with various concentration of drugs or drug combinations (10 μl per well in 384 well plates), at the end of the drug treatment, 30 μl of the CellTiter-Glo regent were added to each well (384 well plates) to lyse the cell, and luminescence signals were recorded on a Envision plate reader.
(§2) Method for calculating the effect of the Combination: To evaluate the everolimus and Compound A combination effect in a non-bias way and to identify synergistic effect at all possible concentrations, the combination studies were conducted with a “dose matrix”, where a combination is tested in all possible permutations of serially-diluted everolimus and Compound A single agent doses, in all combination assays, compounds were applied simultaneously. Single agent dose responding curves, IC50, IC90, and the Synergy are all analyzed using Chalice software (CombinatoRx, Cambridge, Mass.). Synergy was calculated by comparing a combination's response to those of its single agents, against the drug-with-itself dose-additive reference model. Deviations from dose additivity can be assessed visually on an Isobologram or numerically With a Combination Index. Excess inhibition compare to additivity can also be plotted as a full dose-matrix chart to capture where the synergies occur. To quantify the overall strength of combination effects, a volume score VHSA=ΣXYInfXInfY(Idata−IHSA) is also calculated between the data and the highest-single-agent surface, normalized for single agent dilution factors fX,fY[ref].
The cells were plated at 50000 cells/well in 96 well plates in triplicate, and treated with compound for 72 hrs prior to the measurement (FIG. 10). The following “dose matrix”, everolimus: 8 dose, 3×, 500 nM to 0.23 nM, Compound A: 8 dose, 2×, 1 μM to 8 nM, was applied.

[2] = tested on: p4EBP1 T37/46 in NCI-H23 cells; test: High content p4EBP1 T37/46 assay in NCI-H23 cells; format: cell-based, human
Procedure: Automated imaging assay (or High-Content assay) for pS6 S240/244 and p4EBP1 T37/46: 2-4×10^3 cells were seeded in clear-bottom 384-well black plates (Greiner #781091) in 30 μl per well growth media 24 hours prior to treatment Compounds were added to the cell in 10 μl growth media and incubated overnight; the cells were then fixed by addition of 10 μl per well Mirsky's fixative (National Diagnostics #HS-102) for 1 hour, washed seven times with 30 μl/well TBS buffer using a BioTek plate washer, and blocked with 100 μl/well blocking buffer (TBS with 0.1% BSA and 0.1% Triton X-100). The anti-Ser 240/244 -RPS6 antibody (CST #4838, 1:150 dilution) or anti-Thr 37/46-p4EBP1 antibody (CST #2855, 1:150 dilution) were then incubated overnight at 4° C. After seven times wash with TBS, the cells were stained with Cy5-conjugated goat-anti-rabbit IgG 2nd antibody (Millipore #AP187S, 1:150 dilution) and DNA staining dye Neediest 33342 for 1.5 hours. The phospho-S6 and phospho-4EBP1 signals were-imaged using InCell 1000 Analyzer (BN_staining—10×protocol) at 10× magnification, 3 fields per well after seven times wash with TBS. For Hoechst 33342 signal; the excitation and emission wave lengths are 360 nm (D360—40× filter) and […] (HQ460—40M filter), respectively, and for Cy5, 620 nm (HQ620—60× filter) for both the excitation and emission wave lengths. Analysis of the images was done using the InCell Investigator software.
as §2
The cells were plated at 3000 cells per well in 384 well plates in quadruplicates, and treated with compound for 18 hrs before the measurement (FIGS. 1-2).

[3] = tested on: AN3 CA human endometrial cancer cells; test: Cell proliferation assay (CellTiter-Glo) in AN3 CA; format: cell-based
Procedure: as §1, §2
The cells were plated at 1500 cells/well in 384 well plates in quadruplicates, and treated with compound for 72 hrs before the measurement (FIG. 9). The following “dose matrix”, everolimus: 11 dose, 4×, 500 nM to 0.5 pM, Compound A: 9 dose, 4×, 1 μM to […], was applied.

[4] = tested on: NCI-H23 human non-small cell lung cancer cells; test: Cell proliferation assay (CellTiter-Glo) in NCI-H23; format: cell-based; conditions: for IC50: Homo sapiens
Procedure: as §1, §2
The experiment setup is identical to the p4EBP1 high content assay as used for the NCI-H23 cell model, (FIG. 5). And the same “doss matrix” (everolimus; 5 dose, 4×, 1.2 μM to 5 nM, Compound A: 9 dose, 2×, 1.2 μM to 5 nM) was applied.
Another experiment was conducted to evaluate the combination effect using cell titer glow (CTG) assay, this time, cells were plated in 384 well plates at 1000 cells/well in triplicates, and treated with compound for 72 hours before the measurement (FIG. 6). in this extended “dose matrix” study, everolimus was subjected to a 11 dose 4× serial dilution with the highest dose at 1 uM and the low dose at about 1 pM, and Compound A was subjected to a 9 dose 4× serial dilution with high dose at 1 μM and low dose at about 16 pM.

[5] = tested on: six cell lines from various tissue lineages; test: Antiproliferative effect of combinations, summary over six cell lines; format: cell-based, human; conditions: depends on the cell types
Procedure: as §1
Method for calculating the effect of the Combination: To evaluate the everolimus and Compound A combination effect in a non-bias way and to identify synergistic effect at all possible concentrations, the combination studies were conducted with a “dose matrix”, where a combination is tested in all possible permutations of serially-diluted everolimus and Compound A single agent doses, in all combination assays, compounds were applied simultaneously. Single agent dose responding curves, IC50, IC90, and the Synergy are all analyzed using Chalice software (CombinatoRx, Cambridge, Mass.). […] Deviations from dose additivity can be assessed visually on an Isobologram or numerically With a Combination Index. […]

[6] = tested on: RPMI 8226 human Multiple Myeloma cancer cells; test: Cell proliferation assay (CellTiter-Glo) in RPMI 8226; format: cell-based; conditions: for IC50: Homo sapiens
Procedure: as §1, §2
The cells were plated at 50000 cells/well in 96 well plates in triplicates, and treated with compound for 72 hrs prior to the measurement (FIG. 12). The following “dose matrix”, everolimus: 8 dose, 3×, 500 nM to 0.23 nM, Compound A: 8 dose, 2×, 1 μM to 8 nM, was applied.

PI3K/mTOR = conditions: cited from earlier work
[7] = with 5 nM everolimus vs Compound A alone
[8] = NCI-H23, 72 h, single agent, extended dose matrix, 72 hours (FIG. 6), read-out: IC50, inhibition of cell growth
[9] = single agent, dose matrix 1.2 μM to 5 nM (FIG. 5)
[10] = single agent, extended dose matrix, 72 hours (FIG. 6)
[11] = single agent, RPMI 8226, 72 hrs

IC90 ([1]; Homo sapiens, GA-10, 72 h, single agent, GA-10, 72 hrs, read-out: IC90, inhibition of cell growth): 250 nM
IC90 ([1]; Homo sapiens, GA-10, concomitant everolimus, GA-10, read-out: IC90 for Compound A, cell growth): 16 nM
IC50 ([1]; Homo sapiens, single agent, GA-10, 72 hrs, read-out: IC50, inhibition of cell growth): ~25 nM
IC90 ([1]; single agent, GA-10, 72 hrs, read-out: IC90, inhibition of cell growth): ~300 nM
IC90 ([2]; Homo sapiens, in combination with 5 nM everolimus, NCI-H23, read-out: IC90 for Compound A, p4EBP1 signal): 5 nM
IC50 ([2]; Homo sapiens, single agent, NCI-H23, 18 hrs, read-out: IC50, reduction of p4EBP1 signal): 10 nM
IC90 ([2]; Homo sapiens, single agent, NCI-H23, 18 hrs, read-out: IC90, reduction of p4EBP1 signal): 80 nM
reduction of IC90 for Compound A, p4EBP1 signal [2, 7]: 16 fold
IC50 ([3]; Homo sapiens, single agent, 72 hrs, read-out: IC50, inhibition of cell growth): 5 nM
IC50 [4, 8]: 80 nM
IC50 ([4]; NCI-H23, in combination with 5 nM everolimus, read-out: IC50 for Compound A, cell growth): 10 nM
IC50 ([4]; NCI-H23, single agent, dose matrix 1.2 μM to 5 nM (FIG. 5), read-out: IC50, inhibition of cell growth): 78 nM
reduction on IC50 of Compound A, cell growth [4, 7]: 8 fold
IC50 ([6]; concomitant everolimus, RPMI 8226, read-out: IC50 for Compound A, cell growth): 16 nM
IC50 ([6]; single agent, RPMI 8226, 72 hrs, read-out: IC50, inhibition of cell growth): ~125 nM
SMILES: Cn1c(=O)n(-c2ccc(C(C)(C)C#N)cc2)c2c3cc(-c4cnc5ccccc5c4)ccc3ncc21 [Compound A, 2-methyl-2-[4-(3-methyl-2-oxo-8-quinolin-3-yl-2,3-dihydro-imidazo[4,5-c]quinolin-1-yl)-phenyl]-propionitrile]
full effective dose amount of Compound A ([1]; Compound A alone, GA-10): > 250 nM
Amax ([1]; single agent, GA-10, 72 hrs): 1
full effective dose amount of Compound A ([1]; with trace amount (sub-nanomolar) of everolimus, GA-10): 16 to 62 nM
concentration at which p4EBP1 signal reduction plateaued (complete inhibition) ([2]; single agent, NCI-H23): ≥ 167 nM
full effective dose amount of Compound A ([3]; Compound A alone): > 64 nM
Amax ([3]; single agent, 72 hrs): 0.69
full effective dose amount of Compound A ([3]; with trace amount (picomolar) of everolimus): close to nanomolar or sub-nanomolar range
Amax, the maximum fraction of inhibition [4, 9]: 0.7
growth inhibition compare to DMSO control (at Amax) [4, 9]: 70%
Amax [4, 10]: 0.7
enhancement of the potency of Compound A by everolimus [5]: 5-100 fold
full effective dose amount of Compound A ([6]; Compound A alone, RPMI 8226): > 125 nM
Amax [6, 11]: 0.7
full effective dose amount of Compound A ([6]; with trace amount (sub-nanomolar) of everolimus, RPMI 8226): 16 to 62 nM
concentration at which mTOR inhibition predominates (PI3K/mTOR; low concentration): less than 100 nmol/L
concentration at which dual PI3K/mTOR inhibition is observed (PI3K/mTOR; relatively higher concentrations): approximately 500 nmol/L

IC50 [4, 8]: > 1000 nM
IC50, inhibition of cell growth [4, 9]: never achieved an IC50
SMILES: CO[C@H]1C[C@@H]2CC[C@@H](C)[C@@](O)(O2)C(=O)C(=O)N2CCCC[C@H]2C(=O)O[C@H]([C@H](C)C[C@@H]2CC[C@@H](OCCO)[C@H](OC)C2)CC(=O)[C@H](C)/C=C(\C)[C@@H](O)[C@@H](OC)C(=O)[C@H](C)C[C@H](C)/C=C/C=C/C=C/1C [everolimus, 40-O-(2-hydroxyethyl)-rapamycin, reference compound]
Amax ([1]; single agent, GA-10, 72 hrs): 0.3
p4EBP1 signal reduction ([2]; single agent, all concentrations tested 5 nM-1.2 μM, NCI-H23): approximately 30%
Amax ([3]; single agent, 72 hrs): 0.3
Amax, the maximum fraction of inhibition [4, 9]: 0.3
Amax [4, 10]: 0.3
Amax [6, 11]: 0.15
